Earlier results on one compound are cited in patent US20220387384A1, “METHODS OF TREATING LSD1-RELATED DISEASES AND DISORDERS WITH LSD1 INHIBITORS” (Taiho Pharmaceutical Co., Ltd., priority 2019, published 2022).

The conditions of the series: i.e. about 3 days; NPL 11.

With `COc1ccc(-c2c(-c3ccc(C#N)c(F)c3)nc(N3CCC(N)CC3)n(C)c2=O)cc1F` [CC-90011], the half-life in pharmacokinetics is about 71 h.
